Experimental data: article PMC6151435, “Bioactivity In Vitro of Quercetin Glycoside Obtained in Beauveria bassiana Culture and Its Interaction with Liposome Membranes” (Molecules : A Journal of Synthetic Chemistry and Natural …, 2017)

Experiments:
[1] = system: T1, human serum albumin (HSA); test: Binding to human serum albumin (fluorescence quenching); details: for Ksv (Stern–Volmer quenching constant): pH 7.4
T1 construct: purchased Sigma-Aldrich
Description: Fluorescence quenching induced by studied molecules is described using the well-known Stern-Volmer equation [53]:(1) F0/F=1+Kqτ0[Qu]=1+KSV[Qu] where: F0 and F are HSA fluorescence intensities before and after adding quencher, respectively, Kq is a bimolecular quenching constant, τ0 is life time of the fluorophore in the absence of quencher (the fluorescence life time of a biopolymer is about 5 × 10^−9 s, [Qu] is the quencher concentration, and KSV is the Stern–Volmer quenching constant (KSV = Kq × τ0). The plot of F0/F against [Qu] at 310 K is shown in Figure 3A,B. The Stern–Volmer plots are evidently linear in the 1–16 μM range of concentration for studied compounds.
The value of the binding constant Ka is crucial for understanding the distribution of the drug in plasma. A strong binding produces a decrease in plasma concentrations, […] the distribution and the pharmacological effect of the compound [55]. The apparent binding constant (Kb) and number of binding sites (n) can be calculated using the following equation:(2) log(F0−F/F)=logKb+nlog[Qu]
The interaction forces between a drug and a biomacromolecule may include hydrophobic forces, electrostatic interactions, van der Waals interactions, hydrogen bonds, etc. The thermodynamic parameters of binding reaction are the main evidence for confirming a binding force. In order to elucidate the binding mode, the binding constant for flavonoid–HSA complex formation was evaluated at four different temperatures. The thermodynamic parameters of the binding process can be calculated using the Van’t Hoff equation [60]:(3) lnKb=−ΔH/RT+ΔS/R
The enthalpy change ∆H is calculated on the basis of the slope of lnKb vs. […] plot. The free-energy change ΔG is estimated on the basis of the following equation:(4) ΔG=ΔH−TΔS=−RTlnKb where: ΔH ΔG and ΔS are enthalpy, free enthalpy and entropy change, respectively. R is the gas constant 8.314 J·mol^−1·K^−1.
Analysis of Q 7-MeGlu and Q interaction with human serum albumin (HSA) was performed according to the procedure described by Strugała et al.. The fluorescence measurements were performed on a Cary Eclipse fluorimeter equipped with 1.0 cm quartz cells and a thermostat bath. All quenching experiments were performed at 300, 305, 310 and 315 K for HSA in a phosphate buffer solution of pH 7.4 and final concentration 1.5 × 10^−5 M. The excitation wavelength was set at 280 nm (excitation of the Trp and Tyr), and the emission spectra were read at 285–460 nm. The excitation and emission slits were both set to 5 nm. Our method consisted in tracking the quenching of natural HSA fluorescence caused by Q 7-MeGlu and Q (of final concentrations 1, 2, 4, 6, 8, 10, 12, 14 and 16 µM) added successively. The stock solutions of Q 7-MeGlu and Q were prepared by dissolving in methanol. Control sample contained appropriate amount of methanol. […] The experiment was performed in three independent replicates (n = 3).

[2] = biological target: T2, COX-1 (Ovis aries, UniProt P05979); test: Inhibition of cyclooxygenase 1 (spectrophotometric, TMPD); format: biochemical, sheep; details: Tris-HCl pH 8.0, room temperature
T2 construct: purchased Sigma-Aldrich
T2 sequence (P05979 25-600): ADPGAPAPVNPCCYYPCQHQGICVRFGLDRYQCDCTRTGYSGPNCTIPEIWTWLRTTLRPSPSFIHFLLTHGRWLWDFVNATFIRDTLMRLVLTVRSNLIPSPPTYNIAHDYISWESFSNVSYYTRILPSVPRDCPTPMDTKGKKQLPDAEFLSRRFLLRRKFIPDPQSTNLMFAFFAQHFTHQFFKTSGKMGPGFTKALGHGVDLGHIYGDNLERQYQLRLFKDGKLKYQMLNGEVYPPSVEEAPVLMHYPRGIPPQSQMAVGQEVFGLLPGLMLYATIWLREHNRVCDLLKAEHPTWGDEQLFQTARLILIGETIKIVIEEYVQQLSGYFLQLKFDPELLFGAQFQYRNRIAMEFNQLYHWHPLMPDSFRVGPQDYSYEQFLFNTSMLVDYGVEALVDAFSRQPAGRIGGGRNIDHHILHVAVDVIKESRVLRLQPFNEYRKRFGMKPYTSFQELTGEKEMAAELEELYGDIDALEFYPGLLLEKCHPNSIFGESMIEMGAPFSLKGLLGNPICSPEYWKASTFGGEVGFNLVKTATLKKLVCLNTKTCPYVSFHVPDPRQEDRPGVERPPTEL
Description: The probes 1,6-diphenyl-1,3,5-hexatriene (DPH), 3-[p-(6-phenyl)-1,3,5-hexatrienyl]propionic acid (DPH-PA), Merocyanine 540 (MC540), and N,N,N-trimethyl-4-(6-phenyl-1,3,5-hexatrien-1-yl)phenylammonium p-toluenesulfonate (TMA-DPH) were purchased from Molecular Probes (Eugene, OR, USA). Tris (hydroxymethyl) aminomethane (Tris:HCl) were obtained from “Chempur” (Piekary Śląskie, Poland). Quercetin (Q) was purchased from Sigma-Aldrich. Yellow powder, ^1H-NMR (DMSO-d6) δH: 6.19 (1H, d, J = 2.1 Hz, H-6), 6.41 (1H, d, J = 2.1 Hz, H-8), 6.89 (1H, d, J = 8.5 Hz, H-5′), 7.54 (1H, dd, J = 8.5, 2.2 Hz, H-6′), 7.68 (1H, d, J = 2.2 Hz, H-2′). ^13C-NMR (DMSO-d6) δC: 93.2 (C-8), 98.0 (C-6), 102.9 (C-10), 114.9 (C-2′), 115.4 (C-5′), 119.8 (C-6′), 121.8 (C-1′), 135.6 (C-3), 144.9 (C-3′), 146.6 (C-2), 147.5 (C-4′), 156.0 (C-9), 160.6 (C-5), 163.7 (C-7), 175.7 (C=O).
This experiment, established on the basis of a modified method given in the work by Jang and Pezzuto [68], was conducted by a spectrophotometric measurement of inhibition of the cyclooxygenases’ activity COX-1 and COX-2. […] The concentrations of studied compounds fluctuated in the range 20–100 µM for Q 7-MeGlu and 5–50 µM for Q. Absorbance of the sample was followed for 3 min by measuring it at 1 min intervals, using a spectrophotometer at a wavelength of 611 nm (Cary 100 Bio, Varian) in relation to a reference sample. […]

SMILES	KSV compared with KSV for Q [1]	Ksv (Stern–Volmer quenching constant) ([1]; T 300 K)	Ksv (Stern–Volmer quenching constant) ([1]; T 305 K)	Ksv (Stern–Volmer quenching constant) ([1]; T 310 K)	Ksv (Stern–Volmer quenching constant) ([1]; T 315 K)	IC50 [2] [µM]
CO[C@H]1[C@H](O)[C@@H](O)[C@H](Oc2cc(O)c3c(=O)c(O)c(-c4ccc(O)c(O)c4)oc3c2)O[C@@H]1CO [Q 7-MeGlu, quercetin 7-O-β-D-(4″-O-methyl)glucopyranoside]	approximately four times lower	3.837 ± 0.192 * ·10^4 M^−1	3.545 ± 0.025 * ·10^4 M^−1	3.412 ± 0.045 * ·10^4 M^−1	3.182 ± 0.013 * ·10^4 M^−1	45.1 ± 2.51
O=c1c(O)c(-c2ccc(O)c(O)c2)oc2cc(O)cc(O)c12 [Quercetin, 3,3′,4′,5,7-pentahydroxyflavone]	–	17.510 ± 0.152 * ·10^4 M^−1	16.719 ± 0.135 * ·10^4 M^−1	15.632 ± 0.109 * ·10^4 M^−1	13.718 ± 0.058 * ·10^4 M^−1	15.7 ± 1.73
